Experimental data from patent publication US20080108645A1, “Dihydrotetrabenazines And Pharmaceutical Compositions Containing Them” (CAMBRIDGE LABORATORIES, (IRELAND), LTD., priority 2004, published 2008).
Entries after “also recorded” stand apart in the source; their conditions may differ.

How the values were obtained:
Dopamine D2L Receptor = target: T1, Dopamine D2L Receptor (Homo sapiens, UniProt P14416); test: Dopamine D2L receptor radioligand binding; conditions: 10 μM; 0.16 nM [3H] Spiperone
T1 construct: expressed in transfected cells; host or cells: CHO cells
Experimental: (§1) (a) Adrenergic α2A Receptor: • Reference: S. Uhlen et al. J. Pharmacol. Exp. Ther., 271:1558-1565 (1994) • Source: Human recombinant insect Sf9 cells • Ligand: 1 nM [^3H] […] J. Pharmacol., 99:803-809, (1990) • Source: Wistar rat cerebral cortex • Ligand: 2 nM [3H]

Monoamine Oxidase MAO-B = target: T2, Monoamine Oxidase MAO-B (Homo sapiens, UniProt P27338); test: Monoamine Oxidase MAO-B inhibition; type: biochemical; conditions: for inhibition at 10 µM: read-out: Percentage Inhibition of Enzyme Activity, MAO-B
T2 sequence (P27338 1-520): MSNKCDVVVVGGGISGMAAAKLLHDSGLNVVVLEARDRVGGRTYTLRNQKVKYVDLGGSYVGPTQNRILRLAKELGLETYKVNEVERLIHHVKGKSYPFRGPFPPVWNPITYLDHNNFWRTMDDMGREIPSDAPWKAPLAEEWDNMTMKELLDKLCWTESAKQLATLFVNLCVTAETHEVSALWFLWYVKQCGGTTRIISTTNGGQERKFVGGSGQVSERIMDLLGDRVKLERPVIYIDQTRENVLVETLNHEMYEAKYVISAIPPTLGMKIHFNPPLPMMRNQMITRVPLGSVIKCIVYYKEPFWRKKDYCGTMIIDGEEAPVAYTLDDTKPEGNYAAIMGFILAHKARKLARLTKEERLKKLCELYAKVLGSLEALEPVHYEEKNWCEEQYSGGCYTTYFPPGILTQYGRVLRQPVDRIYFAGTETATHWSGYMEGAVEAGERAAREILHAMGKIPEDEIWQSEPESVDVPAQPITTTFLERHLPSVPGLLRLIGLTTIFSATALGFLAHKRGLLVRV
Experimental: Isomers B and C were tested for their ability to inhibit enzymes involved in the processing of monoamines in the CNS, namely Catechol O-Methyl Transferase (COMT), Monoamine Oxidase A and Monoamine Oxidase B. The assay methods used are described below and the results are set out in Table 7. (a) Catechol O-Methyl Transferase (COMT) Inhibition • Source: […] None • Incubation time: 60 minutes @ 37° C. • Incubation buffer: 100 mM potassium phosphate, 10 mM MgCl2, 3 mM DTT containing 12 units/ml adenosine deaminase, pH 7.4 • Quantitation method: […]

Adrenergic α2A Receptor = target: T3, Adrenergic α2A Receptor (Homo sapiens, UniProt P08913); test: Adrenergic α2A receptor radioligand binding; conditions: 10 μM; 1 nM [3H] MK-912
T3 construct: expressed in transfected cells; host or cells: insect Sf9 cells
T3 sequence (P08913 1-465): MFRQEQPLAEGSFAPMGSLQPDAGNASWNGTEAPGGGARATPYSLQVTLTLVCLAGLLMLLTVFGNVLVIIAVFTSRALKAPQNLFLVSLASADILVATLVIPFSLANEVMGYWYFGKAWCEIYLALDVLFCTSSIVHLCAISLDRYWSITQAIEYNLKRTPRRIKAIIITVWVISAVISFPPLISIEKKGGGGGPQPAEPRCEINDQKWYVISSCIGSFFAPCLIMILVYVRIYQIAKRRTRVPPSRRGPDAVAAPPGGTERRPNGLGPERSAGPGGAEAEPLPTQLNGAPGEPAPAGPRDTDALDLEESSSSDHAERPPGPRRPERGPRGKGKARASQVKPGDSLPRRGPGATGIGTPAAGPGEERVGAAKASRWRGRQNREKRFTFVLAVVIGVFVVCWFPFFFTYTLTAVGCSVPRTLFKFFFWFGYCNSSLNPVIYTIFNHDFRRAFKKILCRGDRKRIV
Experimental: as §1

in vitro = conditions: human, Caco-2, pH 7.4
Description: (§2) The assay relies on the ability of Caco-2 cells to differentiate into enterocytes when cultured on a microporous filter for a period of approximately 21 days. During the culture period, the Caco-2 cells undergo spontaneous morphological and biochemical changes, which produce a polarized monolayer with a well-defined brush border on the apical surface, as well as tight cellular junctions. Therefore, these cells may be used as an in vitro model for the analysis of drug permeability.
(§3) Absorption across the Caco-2 monolayer can be measured in two directions: apical-to-basolateral or basolateral-to-apical, by adding the compound to the apical or the basolateral chamber, respectively. At various time-points, samples are collected from the receiver-chamber for analysis for the rate of absorption as measured by the apparent permeability coefficient (Papp) across the monolayer.
(§4) The Papp value reflects a combination of the test article permeability through both transcellular (through cell membranes) and the paracellular (across the tight junctions between the cells) pathways. The relative contribution of these pathways depends upon the pKa, partition coefficient (log D), molecular radius, and charge of the test article at a given pH. Papp values can then be used to rank-order compounds for their permeability through Caco-2 monolayers.
(§5) Absorption was determined at pH 7.4 across cell monolayers in the apical-to-basolateral direction. Caco-2 cells used to estimate Papp values were grown for 26 days on Transwell inserts in 12-well plates. Monolayer integrity was verified before and after the absorption assay by the methods of transepithelial electrical resistance (Ohm-cm^2) and Lucifer Yellow.
(§6) On the day of the assay, the reference standards were diluted in Hank's balanced salt solution (HBSS), pH 7.4 to a final concentration of 50 μM. […] Dihydrotetrabenazine isomer samples were prepared at a concentration of 50 mM in DMSO. Each stock solution was further diluted in HBSS buffer (pH 7.4) to a final working concentration of 50 μM
(§7) The Caco-2 cell suspensions were prepared as follows. […] Once the cell density and viability were determined, Caco-2 cells were diluted in culture medium to a final working concentration of 2.0×10^5 cells/ml. The Caco-2 culture medium contained Dulbecco's Modified Eagle Medium, 10% fetal bovine serum, 100 μM non-essential amino acids, 100 U/ml penicillin and 100 μg/ml streptomycin.
(§8) Costar polycarbonate membranes (0.4 μm pore size) were pre-equilibrated with Caco-2 culture medium for 1 hour in a 37° C. water-jacketed incubator with 5% CO2. The content of the apical chamber was removed and replaced with 500 μl of Caco-2 cell suspension (200 000 cells/ml). Cells were further maintained in culture for 26 days in a 37° C. water-jacketed incubator with 5% CO2.
(§9) Prior to the assay, all monolayers were washed twice with HBSS and their transepithelial electrical resistance (TEER) was measured with a Millicell-ERS meter. TEER values obtained in the absence of cells were subtracted as background signal. Only monolayer with TEER values over 150 Ohm-cm^2 were used for the absorption assay experiment.
(§10) All absorption experiments were conducted in triplicate at pH 7.4. The rate of absorption of each reference standard and dihydrotetrabenazine test article was assessed in the apical-to-basolateral direction. Aliquots (100 μl) of each working solution (reference standards and test articles at 50 μM) were set aside at the beginning of the assay for the determination of the initial concentration (Co).
(§11) Absorption experiments were initiated by replacing the content of the donor chamber with 500 μl of Hanks Balanced Salt Solution containing test articles or reference compounds. Cells were returned to the CO2 incubator for the absorption assay. Samples of 100 μl were collected from the receiver and donor chambers after 1 hour and were used to determine the percentage of recovery.

[1] = target: T4, Dopamine Transporter (DAT) (Homo sapiens, UniProt Q01959); test: Dopamine transporter (DAT) radioligand binding; conditions: for Percentage Inhibition of Specific Binding, DAT: 10 μM, 0.15 nM [125I] RTI-55
T4 construct: expressed in transfected cells; host or cells: CHO cells
Experimental: as §1

Dopamine D1 Receptor = target: T5, Dopamine D1 Receptor (Homo sapiens, UniProt P21728); test: Dopamine D1 receptor radioligand binding; conditions: 10 μM; 1.4 nM [3H] SCH-23390
T5 construct: expressed in transfected cells; host or cells: CHO cells
Experimental: as §1

Caco-2 monolayer = conditions: Caco-2
Description: as §2, §3, §4, §5, §6, §7, §8, §9, §10, §11

Sigma σ1 Receptor = target: T6, Sigma σ1 Receptor (Homo sapiens, UniProt Q99720); test: Sigma σ1 receptor radioligand binding; conditions: 10 μM; 8 nM [3H] Haloperidol
T6 construct: Source: Human jurkat cells; endogenous in cells; host or cells: Jurkat cells
Experimental: as §1

5-HT1D/1B receptors = test: 5-HT1D/1B binding assay, [N-methyl 3H] GR-125743, rat forebrain P2 membranes
Experimental: The ability of Compound B and Compound C to bind to 5-HT1D/1B receptors was tested using an assay based on the one described by Millan, M J et al. (2002) Pharmacol. Biochem. Behav. […] [N-methyl ^3H] GR-125743 was used as the radioligand for both 5-HT1D and 5-HT1B receptors. Adult SD rat forebrain P2 membranes (Chazot et al., 1993) were used for the assay. The assay buffer used was 50 mM Tris-HCl pH 7.7 at room temperature containing 4 mM calcium chloride, 0.1% ascorbic acid and 10 μM pargyline. 5-HT (10 μM) was used to define non-specific binding. Incubation with 1 nM [^3H] GR-125743 was carried out for 1 hour at room temperature, and the reaction was terminated by rapid filtration using a Brandel Harvester through GF/B filters pre-soaked in 0.1% polyethyleneimine, followed by three washes with ice-cold buffer (supplemented with 0.1% BSA). A dose range of 10^−10-10^−4M was utilised. The resultant competition curves were analysed using the GraphPad Prism 4 package.

Human HEK-293 cells = test: Cellular assay: inhibition of [3H] serotonin uptake by human embryonic kidney cells; type: cell-based; conditions: for inhibition at 10 µM: Homo sapiens, HEK293
Experimental: The ability of isomers B and C to inhibit uptake of serotonin (5-hydroxytryptamine) by human embryonic kidney cells was measured using the following assay conditions: […]

T4 sequence (Q01959 whole entry): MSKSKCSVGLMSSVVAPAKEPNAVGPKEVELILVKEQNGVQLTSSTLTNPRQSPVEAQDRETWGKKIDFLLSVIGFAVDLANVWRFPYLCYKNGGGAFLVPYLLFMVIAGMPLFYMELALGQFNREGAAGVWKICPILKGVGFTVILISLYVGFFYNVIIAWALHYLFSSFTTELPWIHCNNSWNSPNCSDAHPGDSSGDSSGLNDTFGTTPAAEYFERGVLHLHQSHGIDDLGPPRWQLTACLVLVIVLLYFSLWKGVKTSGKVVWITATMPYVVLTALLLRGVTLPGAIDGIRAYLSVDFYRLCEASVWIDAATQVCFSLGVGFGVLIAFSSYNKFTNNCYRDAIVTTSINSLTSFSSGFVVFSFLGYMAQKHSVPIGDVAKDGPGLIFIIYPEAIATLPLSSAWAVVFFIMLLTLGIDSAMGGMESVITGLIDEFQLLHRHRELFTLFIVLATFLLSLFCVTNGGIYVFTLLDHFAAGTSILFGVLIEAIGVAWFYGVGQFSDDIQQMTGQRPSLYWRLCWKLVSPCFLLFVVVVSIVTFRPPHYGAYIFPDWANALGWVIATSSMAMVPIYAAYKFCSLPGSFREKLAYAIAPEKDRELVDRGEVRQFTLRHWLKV
T6 sequence (Q99720 whole entry): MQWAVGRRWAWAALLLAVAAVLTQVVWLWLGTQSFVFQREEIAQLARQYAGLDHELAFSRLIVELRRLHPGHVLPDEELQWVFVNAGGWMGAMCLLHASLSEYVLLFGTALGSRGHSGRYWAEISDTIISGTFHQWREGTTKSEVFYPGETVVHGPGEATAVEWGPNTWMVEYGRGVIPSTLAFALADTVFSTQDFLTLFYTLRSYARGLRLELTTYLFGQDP
T5 sequence (P21728 whole entry): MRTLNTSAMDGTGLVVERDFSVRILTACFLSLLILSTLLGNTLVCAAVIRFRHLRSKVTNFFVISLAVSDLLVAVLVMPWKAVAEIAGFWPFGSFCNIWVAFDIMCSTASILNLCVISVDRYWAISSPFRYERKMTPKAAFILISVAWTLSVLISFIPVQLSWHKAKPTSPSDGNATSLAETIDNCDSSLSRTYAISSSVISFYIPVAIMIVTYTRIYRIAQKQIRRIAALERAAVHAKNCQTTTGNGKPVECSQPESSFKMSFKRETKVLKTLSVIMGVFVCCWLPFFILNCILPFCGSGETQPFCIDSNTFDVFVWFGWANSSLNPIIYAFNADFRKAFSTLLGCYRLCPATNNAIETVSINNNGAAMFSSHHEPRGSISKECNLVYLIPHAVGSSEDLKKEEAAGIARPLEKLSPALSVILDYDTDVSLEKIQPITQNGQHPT
T1 sequence (P14416 whole entry): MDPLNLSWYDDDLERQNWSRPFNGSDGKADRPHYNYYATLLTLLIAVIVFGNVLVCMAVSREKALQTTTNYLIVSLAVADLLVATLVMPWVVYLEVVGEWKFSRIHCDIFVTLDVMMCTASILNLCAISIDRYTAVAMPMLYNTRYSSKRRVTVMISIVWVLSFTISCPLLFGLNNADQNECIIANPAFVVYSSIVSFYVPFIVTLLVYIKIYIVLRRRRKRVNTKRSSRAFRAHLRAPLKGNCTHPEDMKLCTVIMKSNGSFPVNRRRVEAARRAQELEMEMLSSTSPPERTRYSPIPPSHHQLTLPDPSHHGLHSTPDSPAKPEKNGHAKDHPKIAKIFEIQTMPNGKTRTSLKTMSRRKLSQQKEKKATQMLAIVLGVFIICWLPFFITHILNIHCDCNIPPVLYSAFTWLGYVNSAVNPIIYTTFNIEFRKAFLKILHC

| Compound | Percentage Inhibition of Specific Binding, D2L Receptor (Dopamine D2L Receptor) [%] | inhibitory activity against monoamine oxidase isoform B (in words) (Monoamine Oxidase MAO-B) | inhibition at 10 µM (Monoamine Oxidase MAO-B) [%] | Percentage Inhibition of Specific Binding, α2A Receptor (Adrenergic α2A Receptor) [%] | recovery at 1 h, 50 μM (in vitro) [%] | DAT binding activity (in words) [1] | Percentage Inhibition of Specific Binding, DAT [1] [%] | Percentage Inhibition of Specific Binding, D1 Receptor (Dopamine D1 Receptor) [%] | permeability in the Caco-2 model (in words) (Caco-2 monolayer) | Percentage Inhibition of Specific Binding, σ1 Receptor (Sigma σ1 Receptor) [%] | affinity/activity at 5-HT1D/1B (in words) (5-HT1D/1B receptors) | mode of action on serotonin uptake (in words) (Human HEK-293 cells) | inhibition at 10 µM (Human HEK-293 cells) [%] | Papp A→B at 1 h, 50 μM (in vitro) [×10⁻⁶ cm/s] |
| --- | --- | --- | --- | --- | --- | --- | --- | --- | --- | --- | --- | --- | --- | --- |
| COc1cc2c(cc1OC)[C@H]1C[C@H](O)[C@@H](CC(C)C)CN1CC2 (single isomer, unassigned) [Isomer B, 3,11b-cis-dihydrotetrabenazine] | 16 | no inhibitory activity | -5 | 12 | 90.1 ± 6.5 | lack Dopamine Transporter (DAT) binding activity | 4 | 1 | medium permeability | 82 | low affinity for 5-HT1D/1B receptors; also recorded: no inhibitory activity | antagonist | 56 | – |
| COc1cc2c(cc1OC)[C@H]1C[C@@H](O)[C@@H](CC(C)C)CN1CC2 (single isomer, unassigned) [Isomer C, 3,11b-cis-dihydrotetrabenazine] | −14 | no inhibitory activity | -5 | 13 | 102 ± 12.4 | lack Dopamine Transporter (DAT) binding activity | −2 | 6 | high permeability | 59 | low affinity for 5-HT1D/1B receptors; also recorded: no inhibitory activity | antagonist | 86 | 21.1 |
